{"source": "patent US8222487B2", "about": "“Application of ERF genes from Bupleurum kaoi” (National Tsing Hua University, priority 2009, dated 2012)", "key": {"[1]": {"system": "B. kaoi adventitious roots", "test": "Measurement of H2O2 in adventitious roots", "assay_type": "cell-based, Bupleurum kaoi", "details": "500 μM MeJA; during 5 weeks culture", "description": "To test whether MeJA caused oxidative stress, the H2O2 level was measured as described below. H2O2 was extracted by homogenizing 0.3 to 0.5 g of adventitious roots with 3 ml phosphate buffer (50 mM, pH6.8) and centrifuged at 6000×g for 25 min. A 2 ml extract was mixed with 1 ml 0.1% titanium sulfate in 20% H2SO4 (v/v), and centrifuged at 6000×g for 15 min. The optical density of the supernatant was measured at 410 nm using an equal volume of phosphate buffer as a blank. […] The MDA level was colorimetrically measured as described below. MDA was extracted by homogenizing 0.3 to 0.5 g adventitious roots with 2 ml 5% trichloroacetic acid, and centrifuged at 10,000×g for 5 min at 20° C. A mixture of 1 ml supernatant with 4 ml 0.5% thiobarbituric acid in 20% trichloroacetic acid was heated in a 95° C. water bath for 30 min and centrifuged for 10 min at 2000×g to remove haziness. Optical density of the supernatant was measured at 532 nm and 600 nm using 1 ml 5% trichloroacetic acid to replace supernatant as a blank."}, "[2]": {"system": "B. kaoi adventitious roots", "test": "qRT-PCR of MeJA-induced gene transcripts in adventitious roots", "assay_type": "cell-based, Bupleurum kaoi", "details": "500 μM MeJA", "description": "Adventitious root cultures were induced from the roots of germ-free seedlings of B. kaoi and were subcultured every 6 weeks by adding 0.2 g roots to a 125 ml flask containing 50 ml of B5 liquid medium supplemented with 2 mg 1^−1 NAA. Cultures were shaken using a rotary shaker at 100 rpm at 25° C. in the dark. To quantify the effect of MeJA on saikosaponin level, adventitious roots were treated with 500 and 1000 μM MeJA 2 weeks after subculture. Total saikosaponin was measured 2 weeks after MeJA treatment. To monitor expression of MeJA-responsive genes, the nutrient medium was refreshed 4 weeks after subculture and MeJA (500 μM) was applied 2 weeks after refreshment. Roots were harvested at 13 time points (5 min; 1, 2, 8, 24 hours; 2, 4, 6, 8 days; 2, 3, 4, 5 weeks) after the addition of the MeJA.\nTotal cellular RNA was extracted as described by Chang et al. (Chang et al., Plant Mol. Biol. (1993) 693-699) with some modifications. Three to five grams of tissue was frozen in liquid nitrogen and ground to a fine powder with mortar and pestle. The powder was added to 15 ml of prewarmed (65° C.) extraction buffer (2%, v/v hexadecyltrimethylammonium bromide (CTAB), 2%, v/v polyvinylpyrrolidinone K 30 (PVP), 100 mM Tris-HCl, pH 8.0, 25 mM EDTA, 2 M NaCl, 0.5 mg ml^−1 spermidine, 2% β-mercaptoethanol), and mixed completely by vigorous shaking. The mixture was extracted twice with an equal volume of chloroform:isoamyl alcohol (24:1). The RNA was precipitated by adding ¼ volume of cold 10 M LiCl to the aqueous phase and held for 12 to 18 h at −20° C. After centrifugation at 19,800×g at 4° C., the RNA was dissolved in 500 μl sterile DEPC H2O. The resuspended RNA was reextracted with chloroform:isoamyl alcohol (24:1). Three volumes of 100% ethanol and 1/10 volume of 3 M sodium acetate (pH 5.2) were added to the aqueous phase, and the solution was precipitated with liquid nitrogen for 15 min The RNA was spun down at 19,800×g for 30 min at 4° C. and washed with 80% ethanol. The dried pellet was resuspended in sterile DEPC H2O.\nEach RNA sample of 10 μg in 9 μl sterile DEPC H2O and 1 μl oligo-d(T)18 primer (100 μM) was denatured at 90° C. for 5 min and chilled on ice for 10 min Then 4μ5× reaction buffer (250 mM Tris-HCl, pH 8.0, 375 mM KCl, 15 mM MgCl2), 2 μl 10 mM dNTP, 2 μl 100 mM dithiothreitol (DTT), and 0.5 μl RNasin ribonuclease inhibitor (40 U μl^−1, Promega) were added and incubated at 37° C. for 10 min. After the addition of 1.5 μl Moloney murine leukemia virus (MMLV) reverse transcriptase (200 U μl^−1, Gibco BRL), the reaction was carried out at 37° C. for 90 min, 95° C. for 5 min, then chilled on ice. qRT-PCR reactions were performed with a SYBR Green PCR Master Mix (Applied Biosystems) in a 7500 Real-Time PCR System (Applied Biosystems) using primers designed with Primer Express 2.0 Software (Applied Biosystems). Each reaction was performed in triplicate, and contained 4 μl of a 1:1000 dilution of synthesized cDNA, primers to a final concentration of 100 nM each, 5 μl of the SYBR Green PCR Master mix and sterile deionized H2O to a total volume of 10 μl. PCR reactions were carried out at 50° C. for 2 min, 95° C. for 10 min, 40 cycles of 95° C. for 15 s and 60° C. for 1 min. The specificity of the amplified products was evaluated by analysis of the dissociation curves generated by the equipment. Non-template controls were prepared to confirm absence of contamination. The ratio between the relative amounts of the target gene and the endogenous control gene, in the qRT-PCR reactions, was determined based on the 2^−ΔΔCt method. The target gene expression level was plotted as log10 RQ (RQ=2^−ΔΔCt)."}}, "data": [{"smiles": "CC/C=C\\CC1C(=O)CCC1CC(=O)OC", "note": "(centres unmarked) [MeJA, Methyl jasmonate]", "values": [{"measurement": "H2O2 levels in the adventitious roots", "setting": "[1]", "result": "did not significantly change"}, {"measurement": "Peroxidase AM409285 transcripts increase", "setting": "[2]; 2 weeks", "result": 37, "unit": "fold"}, {"measurement": "BkGST1 (AM409308) transcripts increase", "setting": "[2]; 5 min", "result": 3, "unit": "fold"}, {"measurement": "BkGST2 (AM409289) transcripts activation", "setting": "[2]; 5 min", "result": 6, "unit": "fold"}, {"measurement": "B. kaoi PAL (AM409299) transcripts increase", "setting": "[2]; 1 h", "result": 3, "unit": "fold"}, {"measurement": "BkERF1.2 (AM409280) transcripts increase", "setting": "[2]; 1 h", "result": 133, "unit": "fold"}, {"measurement": "Peroxidase AM409296 transcripts increase", "setting": "[2]; 1 h", "result": 7, "unit": "fold"}, {"measurement": "Phospholipase D alpha 1 (AM409303) transcripts induction", "setting": "[2]; 1 h", "result": 6, "unit": "fold"}, {"measurement": "Trypsin protease inhibitor AM409305 transcripts increase", "setting": "[2]; 1 h", "result": 4, "unit": "fold"}, {"measurement": "ACO gene (AM409282) induction", "setting": "[2]; 2 h", "result": 5, "unit": "fold"}, {"measurement": "BkAOC (AM409312) mRNA level induction", "setting": "[2]; 2 h", "result": 9, "unit": "fold"}, {"measurement": "BkERF1.1 (AM409278) transcripts increase", "setting": "[2]; 2 h", "result": 41, "unit": "fold"}, {"measurement": "IAA-amino acid hydrolase (AM409294) transcripts increase", "setting": "[2]; 2 h", "result": 50, "unit": "fold"}, {"measurement": "PIN (AM409287) transcripts increase", "setting": "[2]; 2 h", "result": 166, "unit": "fold"}, {"measurement": "Prephenate dehydratase (AM409309) transcripts induction", "setting": "[2]; 2 h", "result": 7, "unit": "fold"}, {"measurement": "Trypsin protease inhibitor AM409295 transcripts increase", "setting": "[2]; 2 h", "result": 5, "unit": "fold"}, {"measurement": "BkGST2 (AM409289) transcripts increase", "setting": "[2]; 8 h", "result": 161, "unit": "fold"}, {"measurement": "Peroxidase AM409285 transcripts increase", "setting": "[2]; 8 h", "result": 5, "unit": "fold"}, {"measurement": "Protease inhibitor (AM409279) transcripts increase", "setting": "[2]; 8 h", "result": 4, "unit": "fold"}, {"measurement": "Pyruvate kinase gene (AM409311) induction", "setting": "[2]; 8 h", "result": 3, "unit": "fold"}, {"measurement": "UDP-glucosyltransferase gene (AM409293) induction", "setting": "[2]; 8 h", "result": 98, "unit": "fold"}, {"measurement": "Serine protease inhibitor (AM409301) mRNA level increase", "setting": "[2]; 24 h", "result": 3, "unit": "fold"}, {"measurement": "Trypsin protease inhibitor AM409295 transcripts increase", "setting": "[2]; 2 days", "result": 2051, "unit": "fold"}, {"measurement": "IAA-amido synthase gene (AM409281) induction", "setting": "[2]; 4 days", "result": 5, "unit": "fold"}, {"measurement": "IAA-amino acid hydrolase (AM409294) transcripts increase", "setting": "[2]; 4 days", "result": 139, "unit": "fold"}, {"measurement": "Pyruvate kinase gene (AM409311) induction", "setting": "[2]; 4 days", "result": 9, "unit": "fold"}, {"measurement": "B. kaoi PAL (AM409299) transcripts increase", "setting": "[2]; 6 days", "result": 23, "unit": "fold"}, {"measurement": "Basic endochitinase gene (AM409300) induction", "setting": "[2]; 6 days", "result": 726, "unit": "fold"}, {"measurement": "BkSDR (AM409290) transcripts increase", "setting": "[2]; 6 days", "result": 4, "unit": "fold"}, {"measurement": "Glycosyl hydrolase family 18 protein gene (AM409313) induction", "setting": "[2]; 6 days", "result": 61, "unit": "fold"}, {"measurement": "LOX (AM409291) transcript induction", "setting": "[2]; 6 days", "result": 4404, "unit": "fold"}, {"measurement": "PIN (AM409287) transcripts increase", "setting": "[2]; 6 days", "result": 178, "unit": "fold"}, {"measurement": "Peroxidase AM409296 transcripts increase", "setting": "[2]; 6 days", "result": 114, "unit": "fold"}, {"measurement": "Phospholipase D alpha 1 (AM409303) transcripts induction", "setting": "[2]; 6 days", "result": 44, "unit": "fold"}, {"measurement": "Prephenate dehydratase (AM409309) transcripts induction", "setting": "[2]; 6 days", "result": 27, "unit": "fold"}, {"measurement": "Trypsin protease inhibitor AM409305 transcripts increase", "setting": "[2]; 6 days", "result": 2944, "unit": "fold"}, {"measurement": "Zinc finger C2H2 type gene (AM409288) transcripts induction", "setting": "[2]; 6 days", "result": 118, "unit": "fold"}, {"measurement": "ACO gene (AM409282) induction", "setting": "[2]; 8 days", "result": 19, "unit": "fold"}, {"measurement": "BkGST1 (AM409308) transcripts increase", "setting": "[2]; 8 days", "result": 17, "unit": "fold"}, {"measurement": "IAA-amido synthase gene (AM409281) induction", "setting": "[2]; 8 days", "result": 10, "unit": "fold"}, {"measurement": "MYB gene (AM409302) transcripts increase", "setting": "[2]; 8 days", "result": 53, "unit": "fold"}, {"measurement": "OPR2 (AM409310) expression level induction", "setting": "[2]; 8 days", "result": 19, "unit": "fold"}, {"measurement": "Protease inhibitor (AM409279) transcripts increase", "setting": "[2]; 8 days", "result": 90, "unit": "fold"}, {"measurement": "Serine protease inhibitor (AM409301) mRNA level increase", "setting": "[2]; 8 days", "result": 81, "unit": "fold"}, {"measurement": "Plant defensin (AM409284) transcripts increase", "setting": "[2]; after 2 weeks", "result": 5, "unit": "fold"}, {"measurement": "Enoyl-CoA hydratase gene (AM409286) induction", "setting": "[2]; primarily in 4-8 days", "result": 6, "unit": "fold"}, {"measurement": "β-amyrin synthase gene (β-AS, AM421813) transcript level increase", "setting": "[2]; time not stated", "result": 2, "unit": "fold"}]}]}
